EP0255299A2, “Glycopeptide antibiotics” (SMITHKLINE BECKMAN CORPORATION, priority 1986, dated 1988)
Values after ≈ are worked out from the molar mass of the structure shown. Like-named read-outs stand apart in the source and are kept apart here.

Columns and labels:
[1] = test system: S. faecalis (strain 9, Table 2); experiment: mouse protection assay, i.p. infection with S. faecalis, single s.c. dose; format: in vivo; conditions: mice infected with 3.17 LD50's, dosed once subcutaneously one hour after infection
Description: (§1) The in vivo activity of the CWI-785 complex and its components and hydrolysis products was confirmed by administering selected CWI-785 antibiotics to mice infected with various gram-positive pathogens. In one representative assay, in which mice infected intraperitoneally with 46.8 LD ₅₀ʹs of S. aureus (strain 1, Tables 1 and 2) were dosed once, subcutaneously one hour after infection, the following ED₅₀ʹs (mg/kg) (the ED₅₀ gives the amount of antibiotic necessary for 50% survival) were observed: CWI-785B: 2.4, CWI-785C: 3.1, CWI-785: 3.8, HPB3: 0.9, vancomycin: 0.7. In a second representative assay carried out as above except that mice were infected with 3.17 LD₅₀ʹs of S. faecalis (strain 9, Table 2), the following ED₅₀ʹs were observed: HPB3 hydrochloride: 1.6, HPB4 hydrochloride: 1.6, vancomycin: 2.2, teicoplanin: 1.3.

[2] = test system: S. aureus (strain 1, Tables 1 and 2); experiment: mouse protection assay, i.p. infection with S. aureus, single s.c. dose; format: in vivo; conditions: mice infected intraperitoneally with 46.8 LD50's, dosed once subcutaneously one hour after infection, 50% survival
Description: as §1

physchem = format: physicochemical
Source text: The invention includes within its scope pharmaceutical compositions containing at least one of the above-mentioned antibiotic compounds and a pharmaceutically acceptable carrier. The compositions may also contain other active antibacterial agents. The compositions may be made up in any pharmaceutical form appropriate for the route of administration in question. Such compositions are exemplified by solid compositions for oral administration, such as tablets, capsules, pills, powders and granules; liquid compositions for oral administration such as solutions, suspensions, syrups and elixirs; preparations for parenteral administration such as sterile solutions, suspensions or emulsions; and preparations for topical administration such as gels, creams, ointments or salves. […] In 40% prophylene glycol in water (V/V), the solubility of HPB4 free base is greater than about 200 mg/ml. […] The solubility of HPB4·K is about 300 mg/ml. The solubility of HPB4·2HCl is about 600 mg/ml.
The solubility of the potassium salt is about 300 mg/ml in water.

pH of aqueous solution = format: physicochemical; conditions: 100 mg/ml aqueous solution

**Q.** For `CNC(C(=O)NC1C(=O)NC(CC[S+](C)[O-])C(=O)NC2C(=O)NC3C(=O)NC(C(=O)NC(C(=O)O)c4cc(O)cc(O)c4-c4cc3ccc4O)C(OC3CC(N)C(O)C(C)O3)c3ccc(c(Cl)c3)Oc3cc2cc(c3O)Oc2ccc(cc2)C1O)c1ccc(O)cc1.Cl` (centres unmarked) [HPB3 hydrochloride], which ED₅₀ [1] is on record?
**A.** 1.6 mg/kg

**Q.** For `CNC(C(=O)NC1C(=O)NC(CC[S+](C)[O-])C(=O)NC2C(=O)NC3C(=O)NC(C(=O)NC(C(=O)O)c4cc(O)cc(O)c4-c4cc3ccc4O)C(OC3CC(N)C(O)C(C)O3)c3ccc(c(Cl)c3)Oc3cc2cc(c3O)Oc2ccc(cc2)C1O)c1ccc(O)cc1` (centres unmarked) [HPB3], which ED₅₀ [2] is on record?
**A.** 0.9 mg/kg

**Q.** Which ED₅₀ [1] does the source give for `CNC(C(=O)NC1C(=O)NC(CCSC)C(=O)NC2C(=O)NC3C(=O)NC(C(=O)NC(C(=O)O)c4cc(O)cc(O)c4-c4cc3ccc4O)C(OC3CC(N)C(O)C(C)O3)c3ccc(c(Cl)c3)Oc3cc2cc(c3O)Oc2ccc(cc2)C1O)c1ccc(O)cc1.Cl` (centres unmarked) [HPB4 hydrochloride] here?
**A.** 1.6 mg/kg

**Q.** What does the source list for `CNC(C(=O)NC1C(=O)NC(CCSC)C(=O)NC2C(=O)NC3C(=O)NC(C(=O)NC(C(=O)O)c4cc(O)cc(O)c4-c4cc3ccc4O)C(O[C@H]3C[C@@H](N)[C@@H](O)[C@H](C)O3)c3ccc(c(Cl)c3)Oc3cc2cc(c3O)Oc2ccc(cc2)C1O)c1ccc(O)cc1` (some centres unmarked) [HPB4]?
**A.** solubility (physchem; 40% peg-400 in water, organic solvent or mixture, solubility): ~250 mg/mL (≈ 194 mM); solubility (physchem; 40% propylene glycol in water, organic solvent or mixture, solubility): > 200 mg/mL

**Q.** For `CNC(C(=O)NC1C(=O)NC(CCSC)C(=O)NC2C(=O)NC3C(=O)NC(C(=O)NC(C(=O)O)c4cc(O)cc(O)c4-c4cc3ccc4O)C(O[C@H]3C[C@@H](N)[C@@H](O)[C@H](C)O3)c3ccc(c(Cl)c3)Oc3cc2cc(c3O)Oc2ccc(cc2)C1O)c1ccc(O)cc1` (some centres unmarked) [HPB4·2HCl], which solubility (physchem) is on record?
**A.** about 600 mg/ml

**Q.** For `CNC(C(=O)NC1C(=O)NC(CCSC)C(=O)NC2C(=O)NC3C(=O)NC(C(=O)NC(C(=O)O)c4cc(O)cc(O)c4-c4cc3ccc4O)C(O[C@H]3C[C@@H](N)[C@@H](O)[C@H](C)O3)c3ccc(c(Cl)c3)Oc3cc2cc(c3O)Oc2ccc(cc2)C1O)c1ccc(O)cc1` (some centres unmarked) [HPB4·K], which pH (pH of aqueous solution) is on record?
**A.** 9.29

**Q.** What about the solubility (physchem; solubility) of the same compound?
**A.** ~300 mg/mL (≈ 232 mM)

**Q.** And the solubility (physchem; water, solubility)?
**A.** ~300 mg/mL (≈ 232 mM)

**Q.** Which ED50 ([2]; Staphylococcus aureus, sc, 1 h, read-out: ED₅₀) does the source give for `CN[C@H](CC(C)C)C(=O)N[C@H]1C(=O)N[C@@H](CC(N)=O)C(=O)N[C@H]2C(=O)N[C@H]3C(=O)N[C@H](C(=O)N[C@H](C(=O)O)c4cc(O)cc(O)c4-c4cc3ccc4O)[C@H](O)c3ccc(c(Cl)c3)Oc3cc2cc(c3O[C@@H]2O[C@H](CO)[C@@H](O)[C@H](O)[C@H]2O[C@H]2C[C@](C)(N)[C@H](O)[C@H](C)O2)Oc2ccc(cc2Cl)[C@H]1O` [vancomycin, reference compound] here?
**A.** 0.7 mg/kg

**Q.** What about the ED50 ([1]; Enterococcus faecalis, sc, 1 h, read-out: ED₅₀) of the same compound?
**A.** 2.2 mg/kg
